Source: publication PMC8330100, “Similarities and differences in the localization, trafficking, and function of P-glycoprotein in MDR1-EGFP-transduced rat versus human brain capillary endothelial cell lines” (Fluids and Barriers of the CNS, 2021)
Blank lines part the entries; values can stand above or below the molecule they belong to.

Columns and labels:
[1] = Paracellular mannitol flux across LLC-MDR1 monolayers; type: in vitro ADME, porcine; conditions: pig, LLC-PK1, corresponding to the flux per hour, read-out: mannitol permeability
LLC-MDR1 cell monolayers = assay: as above; type: in vitro ADME, porcine
[2] = Mannitol permeability assay (basolateral to apical) across hCMEC/D3 monolayers; type: in vitro ADME, human; conditions: human
Procedure: (§1) Incubation was performed under cell culture conditions (37 °C, 5% CO2, humidified atmosphere) on a horizontal shaker (55 rpm). […] Basolateral volume was adjusted after each sampling to compensate for changes in the hydrostatic pressure. TEER measurements before and after the assay were carried out to confirm barrier integrity. The apparent permeability coefficients (Papp) in nm per second were calculated according to Artursson. Each experiment was performed in at least three replicates. As was described for the TEER measurements above, mannitol fluxes were compared in the ThinCert®, Transwell®, and Sarstedt-TC-insert systems, using 6-well and 12-well multiwell plates and different membrane materials. Based on this comparison, all subsequent experiments were performed with ThinCert® cell culture inserts [12-well, 0.4 µm pore size, polyethylene terephthalate (PET)] from Greiner Bio-One.

hCMEC/D3 cell monolayers = assay: as above; type: in vitro ADME, human
Procedure: as §1

[3] = Mannitol permeability assay (basolateral to apical) across RBE4 monolayers; type: in vitro ADME, rat; conditions: rat
Procedure: as §1

RBE4 cell monolayers = assay: as above; type: in vitro ADME, rat
Procedure: as §1

[4] = system: Pgp expression in hCMEC/D3 cells; assay: Western blot of Pgp expression, hCMEC/D3 cells; type: cell-based, human
Procedure: (§2) Piet Borst (The Netherlands Cancer Institute, Amsterdam, The Netherlands) as template. The linker sequence in the vector fusing EGFP and MDR1 consists of 36 bp ([…]). hCMEC/D3-WT, RBE4-WT, and hCMEC/D3-MDR1-EGFP cell lines were cultivated as previously described. The same culture conditions were used for the newly prepared RBE4-MDR1-EGFP cell line. As described previously, hydrocortisone (1.4 µM) was added to the culture medium to enhance the expression and functionality of Pgp and transendothelial resistance. All endothelial cell lines were grown on rat-tail collagen I (60 µg/mL, Gibco) coated 100 mm cultures dishes or permeable membrane supports at 37 °C and 5% CO2. Pgp-EGFP protein expression in MDR1-EGFP transduced cells was induced by cell cultivation in medium containing […] doxycycline. Expression of Pgp-EGFP was regularly verified by observing the cells with an inverted fluorescence microscope. Doxycycline supplementation of the medium was maintained during the whole culturing period of Pgp-EGFP expressing cells. For experiments, hCMEC/D3 and RBE4 cells were seeded in a density of 50,000 cells/cm^2. […]
(§3) Pgp expression in immortalized cell lines, primary cells, and brain capillaries was evaluated by western blotting.

[5] = system: Pgp expression in RBE4 cells; assay: Western blot of Pgp expression, RBE4 cells; type: cell-based, rat
Procedure: as §2, §3

Pgp in hCMEC/D3-WT cells = molecular target: T1, Pgp in hCMEC/D3-WT cells (Homo sapiens, UniProt P08183); assay: Rhodamine 123 uptake/accumulation assay, hCMEC/D3-WT cells; type: cell-based; conditions: tariquidar 0.5 µM
T1 construct: endogenous in cells; host or cells: hCMEC/D3-WT
Procedure: The functionality of Pgp in RBE4-WT, RBE4-MDR1-EGFP, hCMEC/D3-WT, hCMEC/D3-MDR1-EGFP cells, and primary rBCECs was analyzed by measuring the uptake of the fluorescent Pgp substrate Rho123 (Sigma-Aldrich). Cells were grown on 6-well plates and cultured for seven days in the presence or absence of doxycycline (1 µg/mL, Biochrom). […] Afterward, Rho123 (5 µM, dissolved in ethanol) was added and cells were incubated for another two hours. Rho123 transport was terminated by washing the cells twice with ice-cold PBS. […] Rho123 uptake was obtained for each condition in triplicates and calculated as absolute fluorescence per mg protein. Additionally, Pgp functionality was expressed as multidrug resistance activity factor (MAF) as described by Huber et al. [40]. This factor describes Pgp efflux activity based on differences in intracellular Rho123 accumulation in cells after Pgp inhibition compared to cells with active Pgp-mediated efflux. Thus, higher MAF values correlate with increased Pgp activity. […] MAF values for Pgp were calculated according to Huber et al. 2012 utilizing the following equation: MAF (%) = 100 · (MFITQ − MFI0)/(MFITQ) where MFITQ and MFI0 represent the mean fluorescence intensity of intracellular Rho123 in tariquidar (TQ)-treated and non-treated cells, respectively.

Pgp in RBE4-WT cells = assay: Rhodamine 123 uptake/accumulation assay, RBE4-WT cells; type: cell-based, rat; conditions: tariquidar 0.5 µM
Procedure: The functionality of Pgp in RBE4-WT, RBE4-MDR1-EGFP, hCMEC/D3-WT, hCMEC/D3-MDR1-EGFP cells, and primary rBCECs was analyzed by measuring the uptake of the fluorescent Pgp substrate Rho123 (Sigma-Aldrich). Cells were grown on 6-well plates and cultured for seven days in the presence or absence of doxycycline (1 µg/mL, Biochrom). […] Afterward, Rho123 (5 µM, dissolved in ethanol) was added and cells were incubated for another two hours. Rho123 transport was terminated by washing the cells twice with ice-cold PBS. Intracellular Rho123 concentration was determined by cell lysis in standard lysis buffer (25 mM Tris, 50 mM NaCl, 0.5% (w/v) sodium deoxycholate, 0.5% (w/v) Triton X-100) and measurement of fluorescence intensity with the FLUOstar OPTIMA (ex.: 485 nm, em.: 520 nm; BMG Labtech). Protein concentrations were determined using a BCA assay kit (Thermo Fisher Scientific). Rho123 uptake was obtained for each condition in triplicates and calculated as absolute fluorescence per mg protein. Additionally, Pgp functionality was expressed as multidrug resistance activity factor (MAF) as described by Huber et al.. This factor describes Pgp efflux activity based on differences in intracellular Rho123 accumulation in cells after Pgp inhibition compared to cells with active Pgp-mediated efflux. Thus, higher MAF values correlate with increased Pgp activity. For better comparison, differences in Rho123 accumulation are normalized to intracellular Rho123 levels in inhibitor-treated cells. MAF values for Pgp were calculated according to Huber et al. 2012 utilizing the following equation: MAF (%) = 100 · (MFITQ − MFI0)/(MFITQ) where MFITQ and MFI0 represent the mean fluorescence intensity of intracellular Rho123 in tariquidar (TQ)-treated and non-treated cells, respectively.

[6] = molecular target: T2, Pgp in RBE4-MDR1-EGFP cells (Homo sapiens, UniProt P08183); assay: Rhodamine 123 uptake/accumulation assay, RBE4-MDR1-EGFP cells; type: cell-based, rat; conditions: RBE4-MDR1-EGFP in the presence of doxycycline; tariquidar 0.5 µM
T2 construct: expressed in transfected cells; host or cells: RBE4 (rat BCEC line), lentiviral transduction, doxycycline-inducible
Procedure: as §2, with “cells/cm^2. Immortalized MDR1 transfected porcine kidney LLC-PK1 (LLC-MDR1) cells, which were used as a reference standard for vectorial transport experiments, were kindly provided by Prof. Piet Borst.” for “cells/cm^2.”

Pgp in primary rBCECs = assay: Rhodamine 123 uptake/accumulation assay, primary rBCECs; type: cell-based, rat; conditions: tariquidar 0.5 µM, P < 0.0001
From the text: The RBE4 and hCMEC/D3 cell lines used here are immortalized, which has the advantage that these cells are stable for several passages and may yield a large number of endothelial cells with the same genetic and phenotypical characteristics. The immortalization status, however, causes several alterations as compared to the native original cell type, including low junctional tightness of cell monolayers and reduced expression of efflux transporters such as Pgp. Therefore, for comparison with the MDR1-EGFP transduced rat RBE4 cells, experiments were also performed with primary cultured rat brain capillary endothelial cells (rBCECs). As described by us previously, rBCECs were prepared following a protocol by Régina et al. and Perrière et al. from 2 to 3 weeks old Wistar rats (obtained from Charles River; Sulzfeld, Germany). All animals were treated according to protocols evaluated and approved by the ethical committee of our university. In short, meninges were removed from cerebral cortices in phosphate-buffered saline (PBS) with 1% penicillin (100 U/mL)/streptomycin (100 μg/mL) (Biochrom AG) on ice. Subsequently, cortices were mechanically dissociated with scalpels. […]
The functionality of Pgp in RBE4-WT, RBE4-MDR1-EGFP, hCMEC/D3-WT, hCMEC/D3-MDR1-EGFP cells, and primary rBCECs was analyzed by measuring the uptake of the fluorescent Pgp substrate Rho123 (Sigma-Aldrich). […] Intracellular Rho123 concentration was determined by cell lysis in standard lysis buffer (25 mM Tris, 50 mM NaCl, 0.5% (w/v) sodium deoxycholate, 0.5% (w/v) Triton X-100) and measurement of fluorescence intensity with the FLUOstar OPTIMA (ex.: 485 nm, em.: 520 nm; BMG Labtech). Protein concentrations were determined using a BCA assay kit (Thermo Fisher Scientific). Rho123 uptake was obtained for each condition in triplicates and calculated as absolute fluorescence per mg protein. Additionally, Pgp functionality was expressed as multidrug resistance activity factor (MAF) as described by Huber et al.. […]

[7] = hCMEC/D3-MDR1 + dox, 7 days after seeding, basolateral to apical, ThinCert 12-well, 0.4 µm, PET
[8] = hCMEC/D3-WT, 12-well, Corning #3460, PET, 4·10^6 pores/cm²
[9] = hCMEC/D3-WT, 7 days after seeding, basolateral to apical, ThinCert (Greiner #665641) 12-well, 0.4 µm, PET, 2·10^6 pores/cm²
[10] = hCMEC/D3-WT, 6-well, Corning #3412, PC, 1·10^8 pores/cm²
[11] = RBE4-MDR1 + dox, 7 days after seeding, basolateral to apical, ThinCert 12-well, 0.4 µm, PET
[12] = RBE4-WT, 6-well, Corning #3412, PC, 1·10^8 pores/cm²
[13] = RBE4-WT, 12-well, Corning #3460, PET, 4·10^6 pores/cm²
[14] = RBE4-WT, 12-well, Sarstedt #83.3931.040, PET, 1·10^8 pores/cm²
[15] = RBE4-WT, 7 days after seeding, basolateral to apical, ThinCert (Greiner #665641) 12-well, 0.4 µm, PET, 2·10^6 pores/cm²

T2 sequence (P08183 with tags, fused parts or gaps): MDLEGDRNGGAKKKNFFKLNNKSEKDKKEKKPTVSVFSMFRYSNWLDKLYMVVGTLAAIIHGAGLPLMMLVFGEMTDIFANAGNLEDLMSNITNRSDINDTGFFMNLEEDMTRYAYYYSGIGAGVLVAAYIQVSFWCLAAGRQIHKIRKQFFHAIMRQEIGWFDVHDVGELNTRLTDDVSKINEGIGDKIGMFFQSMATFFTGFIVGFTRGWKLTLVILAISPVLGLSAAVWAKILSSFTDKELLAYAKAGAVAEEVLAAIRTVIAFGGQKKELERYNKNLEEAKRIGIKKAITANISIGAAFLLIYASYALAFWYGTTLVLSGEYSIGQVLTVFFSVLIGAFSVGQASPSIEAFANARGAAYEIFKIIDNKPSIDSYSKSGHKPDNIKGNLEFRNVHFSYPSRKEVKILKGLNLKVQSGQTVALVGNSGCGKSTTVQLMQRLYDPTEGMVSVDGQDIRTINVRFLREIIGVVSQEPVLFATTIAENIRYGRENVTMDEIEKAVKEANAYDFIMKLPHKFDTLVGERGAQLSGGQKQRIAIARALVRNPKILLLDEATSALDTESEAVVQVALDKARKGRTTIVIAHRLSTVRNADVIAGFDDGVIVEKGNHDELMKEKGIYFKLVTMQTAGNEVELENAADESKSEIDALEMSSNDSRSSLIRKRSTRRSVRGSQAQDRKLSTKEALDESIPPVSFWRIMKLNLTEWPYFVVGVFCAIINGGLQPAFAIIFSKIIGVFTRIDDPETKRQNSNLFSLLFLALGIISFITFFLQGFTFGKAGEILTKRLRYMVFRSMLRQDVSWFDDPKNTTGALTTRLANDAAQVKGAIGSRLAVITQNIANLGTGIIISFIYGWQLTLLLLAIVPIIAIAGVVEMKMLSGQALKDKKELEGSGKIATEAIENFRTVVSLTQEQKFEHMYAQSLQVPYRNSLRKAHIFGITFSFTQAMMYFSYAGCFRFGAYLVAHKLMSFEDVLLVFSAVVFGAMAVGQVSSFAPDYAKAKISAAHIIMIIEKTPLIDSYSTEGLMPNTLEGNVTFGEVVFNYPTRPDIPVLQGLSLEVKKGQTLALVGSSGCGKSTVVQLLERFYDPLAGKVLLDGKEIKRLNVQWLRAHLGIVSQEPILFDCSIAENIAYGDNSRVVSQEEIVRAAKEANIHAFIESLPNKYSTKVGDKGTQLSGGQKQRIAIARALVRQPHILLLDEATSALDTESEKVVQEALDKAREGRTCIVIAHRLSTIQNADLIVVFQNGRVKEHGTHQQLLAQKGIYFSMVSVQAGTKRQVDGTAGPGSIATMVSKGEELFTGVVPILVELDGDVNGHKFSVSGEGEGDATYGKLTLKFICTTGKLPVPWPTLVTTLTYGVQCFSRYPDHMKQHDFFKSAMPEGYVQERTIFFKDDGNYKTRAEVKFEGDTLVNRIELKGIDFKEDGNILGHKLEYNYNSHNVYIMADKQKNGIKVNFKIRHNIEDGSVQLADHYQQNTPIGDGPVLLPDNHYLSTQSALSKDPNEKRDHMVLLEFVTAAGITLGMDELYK
T1 sequence (P08183 whole entry): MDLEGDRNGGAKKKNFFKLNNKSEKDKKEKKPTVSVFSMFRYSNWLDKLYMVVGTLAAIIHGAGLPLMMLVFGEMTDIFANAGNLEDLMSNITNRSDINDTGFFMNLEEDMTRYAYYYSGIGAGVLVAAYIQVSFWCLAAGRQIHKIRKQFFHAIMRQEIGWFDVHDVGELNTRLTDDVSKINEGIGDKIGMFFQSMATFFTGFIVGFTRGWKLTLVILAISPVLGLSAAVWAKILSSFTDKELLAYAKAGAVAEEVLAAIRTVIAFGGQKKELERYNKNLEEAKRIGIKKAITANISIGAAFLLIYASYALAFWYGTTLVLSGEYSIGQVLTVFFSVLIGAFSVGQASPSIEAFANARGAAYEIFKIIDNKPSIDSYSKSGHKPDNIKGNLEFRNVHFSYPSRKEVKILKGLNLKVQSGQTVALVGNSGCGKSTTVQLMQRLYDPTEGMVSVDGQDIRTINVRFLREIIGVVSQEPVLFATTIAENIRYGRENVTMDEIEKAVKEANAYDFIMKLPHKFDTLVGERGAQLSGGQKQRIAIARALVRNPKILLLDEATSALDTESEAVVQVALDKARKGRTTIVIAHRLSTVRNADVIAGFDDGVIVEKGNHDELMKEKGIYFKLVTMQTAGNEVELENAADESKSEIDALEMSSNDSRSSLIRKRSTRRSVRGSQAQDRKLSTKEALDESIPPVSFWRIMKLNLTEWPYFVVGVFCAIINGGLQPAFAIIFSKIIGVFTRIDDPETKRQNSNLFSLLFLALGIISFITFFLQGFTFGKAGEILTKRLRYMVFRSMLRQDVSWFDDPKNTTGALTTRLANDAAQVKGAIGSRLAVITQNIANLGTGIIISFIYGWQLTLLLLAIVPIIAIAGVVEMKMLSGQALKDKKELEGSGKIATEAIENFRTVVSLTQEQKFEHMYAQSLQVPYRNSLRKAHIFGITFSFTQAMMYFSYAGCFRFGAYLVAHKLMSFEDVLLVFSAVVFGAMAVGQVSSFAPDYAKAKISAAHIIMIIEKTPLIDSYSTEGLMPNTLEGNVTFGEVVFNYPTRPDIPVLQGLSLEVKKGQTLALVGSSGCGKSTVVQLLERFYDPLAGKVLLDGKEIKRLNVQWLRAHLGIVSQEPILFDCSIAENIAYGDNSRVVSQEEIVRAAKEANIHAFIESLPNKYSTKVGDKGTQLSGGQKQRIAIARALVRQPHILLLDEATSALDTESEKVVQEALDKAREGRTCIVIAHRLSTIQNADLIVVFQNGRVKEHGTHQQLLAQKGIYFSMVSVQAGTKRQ

Papp at 180 min, 1.85 kBq/mL [1]: < 1.2 ×10⁻⁶ cm/s | Papp at 180 min, 1.85 kBq/mL [2, 7]: 5.67 ± 0.252 ×10⁻⁶ cm/s | Papp at 180 min, 1.85 kBq/mL [2, 8]: 13.5 ± 0.372 ×10⁻⁶ cm/s | Papp at 180 min, 1.85 kBq/mL ([2]; hCMEC/D3-WT, 12-well, Sarstedt #83.3931.040, PET, 1·10^8 pores/cm²): 19.8 ± 0.489 ×10⁻⁶ cm/s | Papp at 180 min, 1.85 kBq/mL [2, 9]: 5.38 ± 0.432 ×10⁻⁶ cm/s | Papp B→A at 180 min, 1.85 kBq/mL [2, 10]: 10 ×10⁻⁶ cm/s | Mannitol permeability (hCMEC/D3 cell monolayers; [7]): 3.81 ± 0.11 %/h | Mannitol permeability (hCMEC/D3 cell monolayers; [10]): 14.76 ± 1.01 %/h | Mannitol permeability (hCMEC/D3 cell monolayers; [8]): 11.17 ± 0.36 %/h | Mannitol permeability (hCMEC/D3 cell monolayers; [9]): 3.71 ± 0.13 %/h | Papp at 180 min, 1.85 kBq/mL [3, 11]: 6.07 ± 0.159 ×10⁻⁶ cm/s | Papp at 180 min, 1.85 kBq/mL [3, 12]: 11.3 ± 1.18 ×10⁻⁶ cm/s | Papp at 180 min, 1.85 kBq/mL [3, 13]: 15.4 ± 0.215 ×10⁻⁶ cm/s | Papp at 180 min, 1.85 kBq/mL [3, 14]: 21 ± 0.352 ×10⁻⁶ cm/s | Papp at 180 min, 1.85 kBq/mL [3, 15]: 5.96 ± 0.407 ×10⁻⁶ cm/s | Mannitol permeability (RBE4 cell monolayers; [11]): 4.30 ± 0.22 %/h | Mannitol permeability (RBE4 cell monolayers; [12]): 13.62 ± 0.80 %/h | Mannitol permeability (RBE4 cell monolayers; [13]): 11.15 ± 0.24 %/h | Mannitol permeability (RBE4 cell monolayers; [14]): 19.18 ± 0.13 %/h | Mannitol permeability (RBE4 cell monolayers; [15]): 4.20 ± 0.30 %/h
Compound: OC[C@@H](O)[C@@H](O)[C@H](O)[C@H](O)CO [Mannitol, D-mannitol]
paracellular mannitol flux (LLC-MDR1 cell monolayers): less than 1 % of mannitol diffusion per hour

Compound: C[C@H]1c2cccc(O)c2C(=O)C2=C(O)[C@]3(O)C(=O)C(C(N)=O)=C(O)[C@@H](N(C)C)[C@@H]3[C@@H](O)[C@@H]21 [dox, doxycycline]
increase of Pgp expression in comparison to WT cells ([4]; hCMEC/D3-MDR1-EGFP in the presence of dox, normalized to β-actin): sevenfold | effect on Pgp expression in WT cells ([4]; hCMEC/D3-WT): did not affect | increase of Pgp expression in comparison to WT cells ([5]; RBE4-MDR1-EGFP in the presence of dox, normalized to β-actin): 9 fold | effect on Pgp expression in WT cells ([5]; RBE4-WT): did not affect

effect of Pgp inhibitor on accumulation of Rho123 (Pgp in hCMEC/D3-WT cells): significantly increased | effect of Pgp inhibitor on increased Pgp-mediated Rho123 efflux [6]: could be inhibited
Compound: COc1cc2c(cc1OC)CN(CCc1ccc(NC(=O)c3cc(OC)c(OC)cc3NC(=O)c3cnc4ccccc4c3)cc1)CC2 [tariquidar]
effect of Pgp inhibitor on accumulation of Rho123 (Pgp in RBE4-WT cells): significantly increased | effect of Pgp inhibitor in Rho123 uptake assay (Pgp in primary rBCECs): significant effect
